# Experimental data reported in paper PMC3269340, “Pharmacokinetics of memantine in rats and mice” (PLoS Currents, 2012).
# Assay: in vivo
# Settings: male, C57Bl/6, mouse
# Description: The goals of these studies were to evaluate the PK of memantine (hydrochloride salt) in Sprague-Dawley rats and C57Bl/6 mice following a single intravenous bolus (iv; 1 mg eq./kg), oral gavage (po; 1 and 10 mg eq./kg), or subcutaneous (sc; 1 and 10 mg eq./kg) administration.
# Sprague Dawley (SD) rats (138 adult males), and C57Bl/6 mice (140 adult males), were obtained (Hilltop Laboratories, Scottsdale, PA); 123 per species were used in the study and the remainder provided blank matrix. Animals were individually identified by tail markings and were acclimated to the study environment for 16-21 days prior to dose administration. Animals were individually housed in suspended wire caging, and were kept on a 12h/12h light/dark cycle except when interrupted for study procedures. Average room temperature was regulated in the range 18 to 29°C, average relative humidity of 30-70%, and an average daily airflow >10 fresh air changes/h. Animals were fed LabDiet^Ò Certified Rodent Diet 5002 Meal food ad libitum, except during fasting prior to dose administration, and had access to water ad libitum.
# Memantine was dosed as a solution in physiological saline as a single dose via intravenous bolus (1 mg eq./kg), oral gavage (po; 1 and 10 mg eq./kg), or subcutaneous (sc; 1 and 10 mg eq./kg) administration. The concentration of memantine in the 1 mg eq./kg iv, po, and sc solutions dosed to rats was 1 mg eq./mL, and the dose volume was 1 mL/kg. The concentration of memantine for the same dose level administered to mice was 0.2 mg eq./mL, and the dose volume was 5 mL/kg. The concentration of memantine in the 10mg eq./kg po and sc solutions was 5 mg eq./mL and the dose volume was 2 mL/kg for both rats and mice.
# Details of the dose administration, body weights, clinical observations, plasma and brain sample collection and preparation are not shown in this report but are available upon request. Blood (for preparation of plasma) and brain samples were collected at 0.08, 0.25, 0.5, 1, 2, 4, 8, and 24h post-dose.
# Since all time points were terminal, mean memantine concentrations per time point were used to calculate the composite PK parameters by non-compartmental analysis using WinNonlin program, version 5.2 (Pharsight Corp., Mountain View, California). A model was selected based on the vascular (iv bolus) or extravascular (po or sc) routes of administration. For the iv route, plasma concentration at time zero was back extrapolated from the first two observed post dose plasma concentrations. For the po and sc routes, concentration at time zero was assumed to be zero. Plasma and tissue concentrations below the limit of quantitation were treated as absent samples for the purpose of calculating the mean plasma concentration values or for calculating PK parameters.
# The area under the plasma concentration versus time curve (AUC) was calculated using the linear trapezoidal method (linear interpolation). When appropriate, the terminal elimination phase of the PK profile was estimated based on the best fit (r^2) using at least the last three observed concentrations. PK parameters describing the systemic exposure of memantine in plasma and brain were estimated from observed (rather than predicted) plasma/brain concentrations, the dosing regimen, the AUC, and the terminal elimination phase rate constant (kel) for each group. The portion of the AUC from the last measurable concentration to infinity was estimated from the equation Ct/kel, where Ct represents the last measurable concentration. The extrapolated portion of the AUC was used for the determination of AUC0-∞. The percent bioavailability (%F) was calculated by dividing the dose normalized extravascular plasma AUC0-∞ by the dose normalized iv plasma AUC0-∞ times 100. The bioavailability calculations assumed concentrations were in the linear range.
# Concentrations of memantine in rat and mouse plasma and brain were determined using an LC-MS/MS assay developed at ABC Laboratories.
smiles,measurement,setting,value
CC12CC3CC(C)(C1)CC(N)(C3)C2 [memantine],"Cmax and exposures increase, fold more than dose-proportional",,~ 1.5 fold
same,Cmax/Cmin ratios,,> 100
same,Contribution of active transport to clearance,,> 100%
same,delay in Tmax for brain compared to plasma,,0.25 to 1.5 h
same,elimination half-life,,< 4 h
same,"total systemic clearance, times higher than GFR",,~4.5 fold
same,C max/ C min ratio,10 mg/kg,760
same,concentration at 24 h,10 mg/kg,0.01 µM
same,Tmax,"10 mg/kg, T max",0.5 to 1 h
same,Tmax,Tmax after extravascular administration,0.25 to 0.5 h
same,half-life,brain elimination half-lives after extravascular administrations,2.16 to 3.05 h
same,half-life,elimination half-life,3 to 4 h
same,Cmax,"in vivo, iv, 1 mg/kg",7.7 µM
same,Cmax,"in vivo, sc, 1 mg/kg",0.527 µM
same,Half-life (t½),"iv, 1 mg/kg",2.98 h
same,MRT inf,"iv, 1 mg/kg",2.35 h
same,clearance,"iv, 1 mg/kg",3.81 L/h/kg
same,half-life,"iv, 1 mg/kg, Half-life (t½)",1.97 h
same,Tmax,"iv, 1 mg/kg, Observed Tmax",1 h
same,half-life,"iv, t 1/2",3 h
same,bioavailability,po,85%
same,Half-life (t½),"po, 1 mg/kg",3.02 h
same,bioavailability,"po, 1 mg/kg",84.6%
same,AUC(0-inf),"po, 1 mg/kg",1.2 µM·h
same,Cmax,"po, 1 mg/kg, C max",0.5 µM
same,half-life,"po, 1 mg/kg, Half-life (t½)",1.86 h
same,Tmax,"po, 1 mg/kg, Observed Tmax",0.5 h
same,Tmax,"po, 1 mg/kg, T max",0.5 h
same,Half-life (t½),"po, 10 mg/kg",3.05 h
same,bioavailability,"po, 10 mg/kg",125%
same,AUC(0-inf),"po, 10 mg/kg",18.2 µM·h
same,Cmax,"po, 10 mg/kg, C max",7.6 µM
same,half-life,"po, 10 mg/kg, Half-life (t½)",2.92 h
same,Half-life (t½),"sc, 1 mg/kg",2.16 h
same,bioavailability,"sc, 1 mg/kg",97.8%
same,half-life,"sc, 1 mg/kg, Half-life (t½)",1.64 h
same,Cmax,"sc, 1 mg/kg, Observed Cmax",5.36 µM
same,Half-life (t½),"sc, 10 mg/kg",3.00 h
same,bioavailability,"sc, 10 mg/kg",150%
same,half-life,"sc, 10 mg/kg, Half-life (t½)",3.07 h
